This note sets out measurements from patent US4042695A, “Thiaxanthene derivatives, compositions thereof and methods of treating therewith” (priority 1972, dated 1977).

Counter-ions that a name gives are not always drawn. Like-named read-outs stand apart in the source and are kept apart here. Where only a bound is given, the exact number is not on record here.

What is called ED50 is the dose at which the effect has come halfway, by size or by number of responders.

One series deals with NMRI male mice. The series is described as follows: Methylphenidate antagonism in mice. Particulars: for ED50: Mus musculus, ip. In kind it is in vivo. The protocol: 1. As animals were used NMRI male mice weighing 18-25 grams.
3 × 2 or 5 × 2 mice are used for each dose level. Thirty minutes, 1 hour, 2 hours, 3 hours etc. after i.p. injection of test substance, methylphenidate, 60 mg/kg, is injected s.c. At each time interval separate groups of mice were used. After administration of methylphenidate the mice are placed in the observation cages, 2 in each cage, where they remain for 1 hour. The cages are placed on corrugated paper, the corrugations facing upwards. It is examined whether or not the mice have been biting the corrugated paper. […] The peak effect was determined for the test substances and also for a number of known neuroleptics.

A short description of series [1]: Catalepsy-inducing effect in rats. Type of series: in vivo, male Wistar rats. Particulars: rat, in vivo, sc. The protocol:
(§1) Reference is made to L. Juluo: "On the Interaction between Neuroleptics and Antiparkinson Drugs." Modern Problems of Pharmacopsychiatry, vol. 5, pg, 50-54. The test may be described as follows:
(§2) Five animals are used at each dose level.
(§3) The test compound is injected subcutaneously (s.c.)
(§4) Injection volume is 5 ml of the vehicle/kg b.w.
(§5) Except when otherwise stated saline is used as vehicle.
(§6) The animals are placed in the middle of a vertical wire netting (50 cm/49 cm) 60, 120, 180, 240, 300 and 360 minutes after injection of the test compound.
(§7) The animals are considered cataleptic when they remain immobile during a period of 15 seconds. This cataleptic reaction is designated: + (plus). Untreated animals climb normally up and down the wire netting. The absence of catalepsy is designated: - (minus). The results are expressed as fractions as follows: 0/5, 1/5, 2/5, 3/5, 4/5 and 5/5 in which 0, 1, 2, 3,4 and 5 represent the number of cataleptic animals out of five animals tested.

For the next series, the system named is male Wistar rats. Put plainly: Catalepsy-inducing effect in rats. Type of series: in vivo. Particulars: catalepsy (rats) / methylphenidate antagonism peak effect (mice). The protocol:
as §1, §2, §3, §4, §5, §6, §7

Series [2] relates to adult purebred Beagle dogs. Put plainly: Apomorphine antagonism in dogs. Type of series: in vivo. From the text:
Especially when testing esters of the compounds of Formula I it has been found advantageous to use the wellrecognized test which is based upon the fact that strong neuroleptics antagonize apomorphine induced vomiting in dogs. The test is described by P. A. J. Janssen, C. J. E. Niemegeers and K. H. L. Schellehaus: "Is it possible to predict the clinical effects of neuroleptic drugs (major tranquillizers) from animal data" ?, Part II, Arzneimittel Forschung, 15, 1196-1206, 1965. In order to evaluate esters of the compounds of Formula I a modified method is described by M. Nymark et al. in Acta pharmacol. et toxicol. 1973, 33, 363-376. The test may be described shortly as follows:
As animals were used adult purebred Beagle dogs of either sex. The threshold-dose of apomorphine hydrochloride for the induction of vomiting in the dogs has been determined to be 0.025 mg/kg intravenously. After this dose vomiting occurs within a few minutes of the injection. Four dogs were used for each dose level of the drug, which was injected subcutaneously at the back of the neck. At different times after the drug administration the dogs were then challenged with apomorphine according to an "up-and-down" schedule using the dose-range 0.025- 0.400 mg/kg intravenously geometrically spaced. […] In this way it was possible to estimate at which level of apomorphine the dogs were protected at a given time. The dogs were fed half an hour before testing to ensure an easy vomiting.

In a further series the test system is rats. Put plainly: Antagonism of amphetamine-induced stereotyped behaviour in rats. In kind it is in vivo. The protocol:
The modification used by us was as follows:
The animals were then placed in individual cages. […] The absence of stereotypy was interpreted as a drug effect. ED50 values for protection against stereotypy were determined. All compounds were tested at a minimum of three dose levels using 10 rats per dose, and the observer was kept unaware of the identity of the groups until after the experiment.

The mark [3] stands for this setting: mice, i.p., 24 h after injection, read-out: Methylphenidate antagonism ED50, 24 h.
[4] abbreviates: mice, i.p., peak effect, methylphenidate 60 mg/kg s.c., read-out: Methylphenidate antagonism, peak effect ED50.
[5] abbreviates: rats, s.c., dose producing catalepsy in 50% of the animals, read-out: Catalepsy ED50 max.
[6] abbreviates: read-out: Methylphenidate antagonism, peak effect ED50.

Regarding `OCCN1CCN(CCCC2c3ccc(F)cc3Sc3ccc(C(F)(F)F)cc32)CC1` (stereo not shown) [Substance 1], the ED50 is 1.66 mg/kg in the series with NMRI male mice (setting [3]), 0.04 mg/kg with NMRI male mice (setting [4]) and 0.9 mg/kg in series [1].

As for `CN1CCN(CCCC2c3ccc(F)cc3Sc3ccc(C(F)(F)F)cc32)CC1` (stereo not shown) [Substance 2, 2-trifluoromethyl-6-fluoro-9-(3-(4-methyl-1-piperazinyl)propyl)thiaxanthene], the median effective dose (ED50) is above 10 mg/kg in the series with NMRI male mice (setting [3]), 0.3 mg/kg with NMRI male mice (setting [4]) and 3.1 mg/kg in series [1] (setting [5]). Also, the “duration of peak effect” value with NMRI male mice (mice, i.p.) is above 5 h. In addition, the “Ratio Cat./Meth (catalepsy/methylphenidate antagonism)” value in the series on male Wistar rats was determined as 10.

`OCCN1CCN(CCCC2c3ccc(F)cc3Sc3ccc(Cl)cc32)CC1` (stereo not shown) [Substance 3, 2-chloro-6-fluoro-9-(3-(4-(2-hydroxyethyl)-1-piperazinyl)propyl)-thiaxanthene]: the figures for the ED50 (in the series with NMRI male mice (setting [3]); in the series on NMRI male mice (setting [4]); in series [1] (setting [5])) were 7.1 mg/kg, 0.8 mg/kg and 2.7 mg/kg, respectively. The “duration of peak effect” value in the series on NMRI male mice (mice, i.p.) was above 5 h. Further, the “Ratio Cat./Meth (catalepsy/methylphenidate antagonism)” value with male Wistar rats stood at 3.4.

As for `CN1CCN(CCCC2c3ccc(F)cc3Sc3ccc(S(=O)(=O)N(C)C)cc32)CC1` (stereo not shown) [Substance 4, 2-dimethylsulfamoyl-6-fluoro-9-(3-(4-methylpiperazine-1-yl)propyl)-thiaxanthene], the ED50 in the series with NMRI male mice (setting [3]) is above 5 mg/kg; in the series with NMRI male mice (setting [4]), 1 mg/kg; in series [1] (setting [5]), 3.1 mg/kg. Moreover, in the series with male Wistar rats, the “Ratio Cat./Meth (catalepsy/methylphenidate antagonism)” value is 3.1.

For `CN1CCN(CCC=C2c3ccc(F)cc3Sc3ccc(S(=O)(=O)N(C)C)cc32)CC1` [Substance 5, 2-dimethylsulfamoyl-6-fluoro-9-(3-(4-methylpiperazine-1-yl)propylidene)-thiaxanthene], the 50% effective dose (ED50) was above 10 mg/kg with NMRI male mice (setting [3]), 0.4 mg/kg in the series on NMRI male mice (setting [4]) and 1 mg/kg in series [1] (setting [5]). The “duration of peak effect” value in the series with NMRI male mice (mice, i.p.) was above 5 h. In the series with male Wistar rats, the “Ratio Cat./Meth (catalepsy/methylphenidate antagonism)” value is 2.5.

Regarding `OCCN1CCN(CCC=C2c3ccc(F)cc3Sc3ccc(C(F)(F)F)cc32)CC1` [Substance 6], the ED50 in the series on NMRI male mice (setting [3]) was 0.24 mg/kg; in the series with NMRI male mice (setting [4]) it was 0.05 mg/kg; in series [1] (setting [5]) it was 0.12 mg/kg.

On to `OCCN1CCN(CCC=C2c3ccc(F)cc3Sc3ccc(Cl)cc32)CC1` [Substance 7], for which the ED50 was above 10 mg/kg in the series with NMRI male mice (setting [3]), 0.4 mg/kg in the series with NMRI male mice (setting [4]) and 2 mg/kg in series [1] (setting [5]). The “duration of peak effect” value in the series on NMRI male mice (mice, i.p.) is above 5 h. Further, the “Ratio Cat./Meth (catalepsy/methylphenidate antagonism)” value in the series with male Wistar rats was determined as 5.

In the case of `OCCN1CCN(CCCC2c3ccc(Cl)cc3Sc3ccc(C(F)(F)F)cc32)CC1` (stereo not shown) [Substance 8, reference compound], the ED50 is 4 mg/kg in the series with NMRI male mice (setting [4]) and above 20 mg/kg in series [1] (setting [5]). For the same molecule, the “Ratio Cat./Meth (catalepsy/methylphenidate antagonism)” value in the series with male Wistar rats is on record as above 5.

For `OCCN1CCN(CCCC2c3cc(C(F)(F)F)ccc3Sc3c(Cl)cccc32)CC1` (stereo not shown) [Substance 9, reference compound], the 50% effective dose (ED50) was 14 mg/kg in the series on NMRI male mice (setting [4]) and above 20 mg/kg in series [1] (setting [5]). The “Ratio Cat./Meth (catalepsy/methylphenidate antagonism)” value in the series on male Wistar rats was 1.5.

Turning to `OCCN1CCN(CCCC2c3cc(C(F)(F)F)ccc3Sc3c2cccc3C(F)(F)F)CC1` (stereo not shown) [Substance 10, reference compound], the median effective dose (ED50) with NMRI male mice (setting [4]) was above 10 mg/kg; in series [1] (setting [5]) it was above 20 mg/kg.

In the case of `OCCN1CCN(CCCC2c3ccc(C(F)(F)F)cc3Sc3ccc(C(F)(F)F)cc32)CC1` (stereo not shown) [Substance 11, reference compound], the ED50 in the series with NMRI male mice (setting [4]) is above 10 mg/kg; in series [1] (setting [5]) it was above 20 mg/kg.

With `CN(C)S(=O)(=O)c1ccc2c(c1)C(=CCCN1CCC(CCO)CC1)c1ccc(F)cc1S2` [Substance 12, 2-Dimethylsulfamoyl-6-fluoro-9-(3-(4-(2-hydroxyethyl)-1-piperidyl)propylidene)-thiaxanthene], the results for the ED50 (in the series with NMRI male mice (setting [3]); in the series with NMRI male mice (setting [4]); in series [1] (setting [5])) were above 10 mg/kg, 0.87 mg/kg and 0.69 mg/kg, respectively. The “Ratio Cat./Meth (catalepsy/methylphenidate antagonism)” value with male Wistar rats was determined as 0.8.

With `OCCC1CCN(CCC=C2c3ccc(F)cc3Sc3ccc(C(F)(F)F)cc32)CC1` [Substance 13], the median effective dose (ED50) came to 0.03 mg/kg with NMRI male mice (24 h, read-out: Methylphenidate antagonism ED50, 24 h); 0.03 mg/kg with NMRI male mice (setting [6]); 0.05 mg/kg in series [1] (setting [5]).

For `OCCC1CCN(CCCC2c3ccc(F)cc3Sc3ccc(C(F)(F)F)cc32)CC1` (stereo not shown) [Substance 14, 2-Trifluoromethyl-6-fluoro-9-(3-(4-(2-hydroxyethyl)-1-piperidyl)propyl)-thiaxanthene], the ED50 amounted to 3.6 mg/kg in the series with NMRI male mice (setting [3]), 0.25 mg/kg with NMRI male mice (setting [4]) and 0.21 mg/kg in series [1] (setting [5]). Moreover, the “Ratio Cat./Meth (catalepsy/methylphenidate antagonism)” value in the series on male Wistar rats came out at 0.8.

Regarding `OCCC1CCN(CCC=C2c3ccc(F)cc3Sc3ccc(Cl)cc32)CC1` [Substance 15, 2-chloro-6-fluoro-9-(3-(4-(2-hydroxyethyl)piperidin-1-yl)propylidene)thiaxanthene], the ED50 came out at 0.27 mg/kg with NMRI male mice (setting [3]), 0.08 mg/kg with NMRI male mice (setting [4]) and 0.07 mg/kg in series [1] (setting [5]). Moreover, the “Ratio Cat./Meth (catalepsy/methylphenidate antagonism)” value in the series on male Wistar rats came out at 0.9.

With `CN1CCc2cccc3c2[C@H]1Cc1ccc(O)c(O)c1-3` [apomorphine hydrochloride, reference compound], the minimal effective dose in series [2] (Canis lupus familiaris, iv, intravenously, read-out: threshold-dose for the induction of vomiting) turned out to be 0.025 mg/kg.

`CCCCCCCCCCCCCCCCCCCCCC(=O)OCCC1CCN(CCC=C2c3ccc(F)cc3Sc3ccc(C(F)(F)F)cc32)CC1` [behenic acid ester of Lu 12-331, behenic acid ester of the alpha-isomer of 2-trifluoromethyl-6-fluoro-9-(3-(4-(2-hydroxyethyl)-1-piperidyl)propylidene)-thiaxanthene]: in the series with rats (5 mg/kg s.c.), the “duration of protection against amphetamine-induced stereotypies” value was determined as 21 days and the sedation entry is reported as “hardly any sedation”. In series [2] (1 mg/kg subcutaneously as Lu 12-331, first week), the “sedation compared with the palmitic acid ester” value is on record as “less sedation in the first week”. In addition, in series [2] (1.6 mg/kg s.c. of ester), the “duration of maximal protection” value was found to be 15 days and the “time after which the effect had disappeared” value was 26 days. Also, in series [2] (1.6 mg/kg s.c. of ester ~ 1 mg/kg of Lu 12-331), the “maximal protection against apomorphine” value is 16 × threshold dose of apomorphine. In series [2] (1.6 mg/kg s.c. of ester, 21 days), the “protection against apomorphine 21 days after the injection” value is recorded as ~ 12 × threshold dose. Further, the sedation entry in series [2] (1.6 mg/kg s.c. of ester, at any time) is “No sedation”.

As for `CN(C)CCCN1c2ccccc2Sc2ccc(Cl)cc21` [chlorpromazine, reference compound], the ED50 (in the series with NMRI male mice (setting [6]); in series [1]) was 4 mg/kg throughout. For the same molecule, the “Ratio Cat./Meth (catalepsy/methylphenidate antagonism)” value in the series on male Wistar rats came to 1.0.

Take `CCCCCCCCCCCCCCCC(=O)OCCC1CCN(CCC=C2c3ccc(F)cc3Sc3ccc(C(F)(F)F)cc32)CC1` [palmitic acid ester of Lu 12-331, palmitic acid ester of the alpha-isomer of 2-trifluoromethyl-6-fluoro-9-(3-(4-(2-hydroxyethyl)-1-piperidyl)propylidene)-thiaxanthene]: the sedation entry with rats (2-5 mg/kg s.c.) is “pronounced sedation lasting for several days”.

In the case of `CCCCCCCCCC(=O)OCCN1CCN(CC/C=C2/c3ccccc3Sc3ccc(C(F)(F)F)cc32)CC1` [reference compound], in series [2] (2 mg/kg s.c.), the “day after the injection on which the effect had disappeared” value stood at 11 days and the “degree of protection against apomorphine” value is 3 × threshold dose.
